The source of these data is ChEMBL document CHEMBL1138039, “Discovery and pharmacological evaluation of growth hormone secretagogue receptor antagonists” (J Med Chem, 2006).

Data set [1] has as its target T1, Growth hormone secretagogue receptor type 1 (Homo sapiens, UniProt Q92847). The experiment in a line: Inhibition of [125I]ghrelin binding to GHS receptor in CHO-K cells. It is filed as cell-based.
Data set [2] has as its target T1, Growth hormone secretagogue receptor type 1. The experiment in a line: Activity at GHS receptor by calcium flux assay in CHO-K cells. It is filed as functional, cell-based.
The target in a further data set is T2, Dihydrofolate reductase (Homo sapiens, UniProt P00374).
T2 sequence (P00374 whole entry): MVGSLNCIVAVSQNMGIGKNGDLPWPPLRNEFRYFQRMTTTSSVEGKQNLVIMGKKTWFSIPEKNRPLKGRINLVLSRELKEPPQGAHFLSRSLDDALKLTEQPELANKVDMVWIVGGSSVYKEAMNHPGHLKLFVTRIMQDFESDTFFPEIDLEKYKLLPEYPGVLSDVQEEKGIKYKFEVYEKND
The experiment in a line: Inhibition of human recombinant DHFR assessed as rate of depletion of NADPH.

Data set [3] deals with T3, Dihydrofolate reductase (Homo sapiens) (UniProt P00374).
T3 sequence (whole entry): T2 sequence (P00374 whole entry)
Put plainly: Inhibition of human recombinant DHFR assessed as rate of depletion of NADPH at 1 uM.

A short description of data set [4]: Half life in DIO mouse. As to conditions: in vivo. It is filed as ADME, organism-based.
Data set [5] is described as follows: AUC in orally dosed DIO mouse. As to conditions: plasma, po. Format: ADME, organism-based.
Data set [6] concerns Mus musculus. Put plainly: Ratio of drug level in brain against plasma in orally dosed DIO mouse. Format: ADME, organism-based. As to conditions: po.
Data set [7] relates to Mus musculus. The experiment in a line: Reduction of cumulative food intake in fasted DIO mouse at 100 mg/kg, po after 20 mins. Format: functional. Set-up: scale not given: the % may be the effect or the level left.
The subject of data set [8] is Mus musculus. Put plainly: Reduction of cumulative food intake in fasted DIO mouse at 100 mg/kg, po after 1 hr. Format: functional. The arrangement: scale not given: the % may be the effect or the level left.
Data set [9] concerns Mus musculus. The experiment in a line: Reduction of cumulative food intake in fasted DIO mouse at 30 mg/kg, po after 20 mins. Format: functional. The arrangement: scale not given: the % may be the effect or the level left.
Data set [10] concerns Mus musculus. Put plainly: Reduction of cumulative food intake in fasted DIO mouse at 30 mg/kg, po after 1 hr. Format: functional. Set-up: scale not given: the % may be the effect or the level left.
Data set [11] is described as follows: Bioavailability in rat. It is filed as ADME, organism-based. As to conditions: in vivo.
The nature of data set [12]: Ratio of drug level in brain against plasma in rat after 1 hr. It is filed as ADME, organism-based. As to conditions: read-out: BBR.
Data set [13] can be described thus: Ratio of drug level in brain against plasma in rat after 8 hrs. Format: ADME, organism-based. As to conditions: read-out: BBR.
The subject of data set [14] is Mus musculus. The experiment in a line: Reduction of cumulative food intake in fasted DIO mouse at 30 mg/kg, ip after 2 hrs. It is filed as functional, organism-based. Set-up: dose 30 mg/kg.
Data set [15] concerns Mus musculus. The experiment in a line: Reduction of cumulative food intake in fasted DIO mouse at 30 mg/kg, ip after 4 hrs. The arrangement: dose 30 mg/kg. Format: functional, organism-based.
Data set [16] deals with Mus musculus. The experiment in a line: Reduction of cumulative food intake in fasted DIO mouse at 30 mg/kg, ip after 24 hrs. Format: functional, organism-based. Set-up: dose 30 mg/kg.
The nature of data set [17]: Half life in rat. Format: ADME, organism-based. As to conditions: in vivo.
A short description of data set [18]: AUC in orally dosed rat. As to conditions: plasma, po. It is filed as ADME, organism-based.
Data set [19] is described as follows: Ratio of drug level in brain against plasma in rat after 4 hrs. Format: ADME, organism-based. As to conditions: read-out: BBR.
The test system of data set [20] is Rattus norvegicus. The experiment in a line: Reduction of cumulative food intake in Sprague-Dawley rat at 50 mg/kg, po after 32 hrs. Format: functional. The arrangement: scale not given: the % may be the effect or the level left.
The subject of data set [21] is Rattus norvegicus. Put plainly: Reduction of cumulative food intake in Sprague-Dawley rat at 50 mg/kg, po after 24 hrs. It is filed as functional. The arrangement: scale not given: the % may be the effect or the level left.
Data set [22] relates to Mus musculus. The experiment in a line: Decrease of food intake in C57BL/6J mouse at 50 mg/kg, po after 1 day. The arrangement: dose 50 mg/kg. It is filed as functional, organism-based.
The subject of data set [23] is Mus musculus. The experiment in a line: Decrease of body weight in C57BL/6J mouse at 50 mg/kg, po after 14 days. Format: functional. Set-up: scale not given: the % may be the effect or the level left.
Data set [24] relates to Mus musculus. The experiment in a line: Decrease of epididymal fat pad weight in C57BL/6J mouse at 50 mg/kg, po after 14 days. Format: functional. Set-up: scale not given: the % may be the effect or the level left.
Data set [25] relates to Mus musculus. Put plainly: Decrease of plasma insulin level in C57BL/6J mouse at 50 mg/kg, po after 14 days. Format: functional, organism-based. Set-up: dose 50 mg/kg.
Data set [26] has as its system Mus musculus. Put plainly: Change in lean body mass of C57BL/6J mouse at 50 mg/kg, po after 14 days. Format: functional, organism-based. The arrangement: dose 50 mg/kg.

For orientation: IC50 means the concentration at which inhibition is half-maximal. Usually inhibition stands for the relative decrease from the control value, in per cent. One may read the half-life as the time in which the quantity being followed falls by half. What is called AUC is concentration integrated over time. The term bioavailability denotes the share of a dose that reaches the circulation, judged against a reference dose that is usually intravenous.

Active and inactive are the calls of the source. No cut-off for these calls is given here.

T1 sequence (Q92847 whole entry): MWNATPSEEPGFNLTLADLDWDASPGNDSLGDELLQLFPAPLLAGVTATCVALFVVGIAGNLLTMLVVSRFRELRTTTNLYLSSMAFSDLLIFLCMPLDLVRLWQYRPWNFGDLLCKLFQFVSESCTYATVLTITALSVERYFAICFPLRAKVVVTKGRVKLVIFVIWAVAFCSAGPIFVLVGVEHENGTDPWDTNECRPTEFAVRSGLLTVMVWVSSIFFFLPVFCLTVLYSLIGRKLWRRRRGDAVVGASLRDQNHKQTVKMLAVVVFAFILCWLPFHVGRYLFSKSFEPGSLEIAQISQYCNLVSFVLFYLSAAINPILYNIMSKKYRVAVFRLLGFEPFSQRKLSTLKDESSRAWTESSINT

For the compound `CCc1nc(N)nc(N)c1-c1ccc(NCc2ccc(S(C)(=O)=O)cc2)cc1`, the half-maximal inhibitory concentration (IC50) in data set [1] is 7 nM; in data set [2] it was 19 nM; at Dihydrofolate reductase, under 10 nM. The inhibition in data set [3] was found to be 99%.
In the case of `CN(C(=O)C1CCCC1)c1ccc(-c2c(N)nc(N)nc2COCc2ccccc2)cc1`, the IC50 is 1670 nM in data set [1] and over 10000 nM in [2].
The matching figures for `CC(=O)Nc1ccc(-c2c(N)nc(N)nc2COCc2ccccc2)cc1`: 2270 nM and over 10000 nM.
Regarding `CCc1nc(N)nc(N)c1-c1ccc2c(c1)nc(-c1ccccc1)n2Cc1ccc(S(C)(=O)=O)cc1`, the IC50 in data set [1] was found to be 16 nM; in data set [2], 249 nM; on Dihydrofolate reductase, 2300 nM.
Consider `CCc1nc(N)nc(N)c1-c1ccc2c(c1)ncn2Cc1ccc(S(C)(=O)=O)cc1`, for which the IC50 in data set [1] was 4 nM; in [2], 11 nM. In addition, the inhibition in data set [3] stood at 78%.
`Nc1nc(N)c(-c2ccc(NC(=O)Cc3cccnc3)cc2)c(COCc2ccccc2)n1`: the half-maximal inhibitory concentration (IC50) was over 1000 nM in data set [1] and over 10000 nM in data set [2].
`CCc1nc(N)nc(N)c1-c1ccc2c(c1)nc(C1CCCC1)n2Cc1ccc(S(C)(=O)=O)cc1`: the results for the concentration for half-maximal inhibition (IC50) (in [1]; in data set [2]; at Dihydrofolate reductase) were 8 nM, 109 nM and 1830 nM, respectively.
Take `Nc1nc(N)c(-c2ccc(NC(=O)C3CCCO3)cc2)c(COCc2ccccc2)n1` (configuration not stated): the values for the IC50 in [1] and in [2] were 391 nM and over 10000 nM, respectively.
As for `CC(C)N(C)C(=O)Nc1ccc(-c2c(N)nc(N)nc2COCc2ccccc2)cc1`, the IC50 in [2] is over 10000 nM.
Same read-out and setting: to `CC(NC(=O)Nc1ccc(-c2c(N)nc(N)nc2COCc2ccccc2)cc1)c1ccccc1` (configuration not stated) belongs 10 nM.
As to `CC(C)(C)NC(=O)Nc1ccc(-c2c(N)nc(N)nc2COCc2ccccc2)cc1`, the IC50 in [2] was 7 nM; on Dihydrofolate reductase, over 100000 nM. This compound showed a half-life in data set [4] of 4.5 h. In data set [5], this compound came in with an AUC of 12300 ng·h/mL. Moreover, the BBR result in the data set with Mus musculus [6] is recorded as “Not Active”. The Activity with Mus musculus [7] amounted to 40%; in the data set on Mus musculus [8], 60%; in the data set on Mus musculus [9], 40%; in the data set on Mus musculus [10] it was 60%.
As to `CCc1nc(N)nc(N)c1-c1ccc(NCc2ccc(Cl)cc2)cc1`, the bioavailability in data set [11] stood at 75%.
As to `CC(C)NC(=O)Nc1ccc(-c2c(N)nc(N)nc2COCc2ccccc2)cc1`, the half-inhibitory concentration (IC50) in data set [2] was 56 nM; at Dihydrofolate reductase, over 10000 nM.
Regarding `Nc1nc(N)c(-c2ccc(NC(=O)NCc3ccccc3)cc2)c(COCc2ccccc2)n1`, the IC50 in data set [2] is 34 nM.
As to `Nc1nc(N)c(-c2ccc(NC(=O)Nc3ccccc3)cc2)c(COCc2ccccc2)n1`, the IC50 in [2] was 88 nM; on Dihydrofolate reductase, over 10000 nM.
For the compound `CC(C)CC(=O)Nc1ccc(-c2c(N)nc(N)nc2COCc2ccccc2)cc1`, the IC50 in [1] came out at 72 nM; in data set [2], 108 nM.
Take `Nc1nc(N)c(-c2ccc(NC(=O)NCCc3ccccc3)cc2)c(COCc2ccccc2)n1`: the IC50 in data set [2] is 7 nM; at Dihydrofolate reductase, over 10000 nM.
On to `CCC(=O)Nc1ccc(-c2c(N)nc(N)nc2COCc2ccccc2)cc1`, for which the IC50 in [1] was 221 nM; in data set [2], over 10000 nM.
In the same order, the values of `Nc1nc(N)c(-c2ccc(NC(=O)CCc3ccccc3)cc2)c(COCc2ccccc2)n1` are 47 nM and 343 nM.
As to `Nc1nc(N)c(-c2ccc(NC(=O)Cc3ccccc3)cc2)c(COCc2ccccc2)n1`, the IC50 is 37 nM in data set [1], 408 nM in data set [2] and over 10000 nM at Dihydrofolate reductase.
In the same order, the values of `Nc1nc(N)c(-c2ccc(NC(=O)Cc3ccsc3Br)cc2)c(COCc2ccccc2)n1` are 41 nM, 137 nM and over 10000 nM.
Take `Nc1nc(N)c(-c2ccc(NC(=O)c3ccncc3)cc2)c(COCc2ccccc2)n1`: the IC50 in data set [1] was 3080 nM; in data set [2], over 10000 nM.
In the same order, the values of `Nc1nc(N)c(-c2ccc(NC(=O)c3ccsc3)cc2)c(COCc2ccccc2)n1` are 126 nM and over 10000 nM.
For the compound `Nc1nc(N)c(-c2ccc(NC(=O)Cc3ccsc3)cc2)c(COCc2ccccc2)n1`, the IC50 came out at 70 nM in [1] and 382 nM in data set [2].
`Nc1nc(N)c(-c2ccc(NC(=O)C3CCCC3)cc2)c(COCc2ccccc2)n1`: the IC50 in [1] was 18 nM; in data set [2] it was 40 nM; at Dihydrofolate reductase, over 10000 nM.
`Nc1nc(N)c(-c2ccc(NCc3ccc(Cl)cc3)cc2)c(COCc2ccccc2)n1`: the Kp at 1 h in data set [12] came to 3.1. The Kp at 8 h in [13] came out at 1.4. For the same compound, the result in the data set with Mus musculus [14], with Mus musculus [15] and in the data set on Mus musculus [16] was Active.
Regarding `Nc1nc(N)c(-c2ccc(NC(=O)C3CC3)cc2)c(COCc2ccccc2)n1`, the figures for the IC50 (in data set [1]; in [2]; at Dihydrofolate reductase) were 66 nM, 188 nM and 28000 nM, respectively. Besides, the bioavailability in data set [11] worked out at 32%. Also, in data set [17], the half-life was 2.4 h. The same compound came in with an area under the curve (AUC) in [18] of 820 ng·h/mL. In addition, the Kp at 1 h in data set [12] turned out to be 0.26. Moreover, the Kp at 4 h in data set [19] came to 1.1. The Kp at 8 h in data set [13] was determined as 0.97. The Activity in the data set with Rattus norvegicus [20] worked out at 11%; in the data set on Rattus norvegicus [21], 9%; in the data set with Mus musculus [23] it was 5.4%; in the data set with Mus musculus [24] it was 20%. Moreover, the outcome in the data set with Mus musculus [22] and in the data set on Mus musculus [25] was Active. Further, the outcome with Mus musculus [26] was inactive.
